Laboratory results taken from PubChem BioAssay (NCI).
Several values for one entry are separate records, joined by “and”; a condition that tells them apart may be missing. Equal entries are not always repeated.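 Five concentrations, 48 hours, 96-well plates. The concentration for 50% growth inhibition is given as GI50. Definition used: TGI = concentration required for complete inhibition of growth.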

What was measured:
Assay in all cases: NCI anticancer screen, dose series, 48 h
TK-10 renal = system: TK-10 renal
SK-MEL-2 melanoma = system: SK-MEL-2 melanoma
SK-MEL-5 melanoma = system: SK-MEL-5 melanoma
HL-60(TB) leukemia = system: HL-60(TB) leukemia
MDA-MB-435 = system: MDA-MB-435
HS 578T breast = system: HS 578T breast
OVCAR-3 ovarian = system: OVCAR-3 ovarian
HCT-15 colon = system: HCT-15 colon
NCI/ADR-RES ovarian = system: NCI/ADR-RES ovarian
786-0 renal = system: 786-0 renal

| SMILES | GI50 (TK-10 renal) | TGI (TK-10 renal) | GI50 (SK-MEL-2 melanoma) | TGI (SK-MEL-2 melanoma) | GI50 (SK-MEL-5 melanoma) | TGI (SK-MEL-5 melanoma) | GI50 (HL-60(TB) leukemia) | TGI (HL-60(TB) leukemia) | GI50 (MDA-MB-435) | TGI (MDA-MB-435) | GI50 (HS 578T breast) | TGI (HS 578T breast) [µM] | GI50 (OVCAR-3 ovarian) | TGI (OVCAR-3 ovarian) | GI50 (HCT-15 colon) | TGI (HCT-15 colon) | GI50 (NCI/ADR-RES ovarian) | TGI (NCI/ADR-RES ovarian) | GI50 (786-0 renal) | TGI (786-0 renal) |
| --- | --- | --- | --- | --- | --- | --- | --- | --- | --- | --- | --- | --- | --- | --- | --- | --- | --- | --- | --- | --- |
| COc1ccc(-c2nnc(SCC(=O)Nc3ccc(/C(C)=N\O)cc3)n2-c2ccccc2)cc1OC | 11.3 µM | 52.7 µM | 5.04 µM | 28.8 µM | > 100 µM | > 100 µM | > 100 µM | > 100 µM | > 100 µM | > 100 µM | 3.75 µM | > 100 | 7.87 µM | > 100 µM | > 100 µM | > 100 µM | > 100 µM | > 100 µM | 14.9 µM | > 100 µM |
| COC1(O)C(=O)c2ccccc2OC1(OC)c1ccccc1 (stereo not drawn) |  | > 100 µM |  | > 100 µM |  | > 100 µM |  | > 100 µM |  | > 100 µM |  | > 100 |  | > 100 µM |  | > 100 µM |  | > 100 µM |  | > 100 µM |
| O=C1/C(=C/c2ccccc2F)CNC/C1=C\c1ccccc1F | 2.92 µM and 1.51 µM | 8.48 µM and 3.5 µM | 2.53 µM and 2.77 µM | 6.18 µM and 6.46 µM | 1.22 µM and 1.59 µM | 2.85 µM and 3.05 µM | 0.371 µM and 2.04 µM | 1.96 µM and 6.92 µM | 0.482 µM and 0.472 µM | 1.46 µM and 1.92 µM | 0.533 µM and 4.11 µM |  | 0.89 µM and 0.309 µM | 3.22 µM and 0.805 µM | 0.196 µM and 0.291 µM | 0.511 µM and 1.16 µM | 0.665 µM and 0.699 µM | 6.57 µM and 12.8 µM | 0.233 µM and 0.739 µM | 0.505 µM and 2.15 µM |
| COc1ccc(-c2cnnn2-c2cc(OC)c3c(c2)OCO3)cc1 | 25 µM | > 100 µM | 0.0955 µM | 90.4 µM | 0.185 µM | 7.33 µM | 0.0761 µM | 2.72 µM | 0.0202 µM | 0.0512 µM | 0.186 µM | > 100 | 0.0547 µM | 0.437 µM | 0.0481 µM | > 100 µM | 0.0403 µM |  | 0.544 µM | > 36.6 µM |
| C=C(C)[C@@H]1CC[C@]2(C(=O)NCCNCCNCCN)CC[C@]3(C)[C@H](CC[C@@H]4[C@@]5(C)CC[C@H](O)C(C)(C)[C@@H]5CC[C@]43C)[C@@H]12 | 15.8 µM | 31.3 µM | 16.8 µM | 37.3 µM | 11.1 µM | 23.4 µM | 7.33 µM | 31.2 µM | 13.4 µM | 27.2 µM | 20.1 µM | 66.7 | 12.2 µM | 25.7 µM | 11.5 µM | 26.1 µM | 18.9 µM | 59 µM | 12.4 µM | 25.2 µM |
| Cn1c(=O)c(Oc2ccc(F)cc2F)cc2cnc(NC(CO)CO)nc21 | > 25 µM | > 25 µM | > 25 µM | > 25 µM | > 25 µM | > 25 µM | > 25 µM | > 25 µM | > 25 µM | > 25 µM | > 25 µM | > 25 | > 25 µM | > 25 µM | > 25 µM | > 25 µM | > 25 µM | > 25 µM | > 25 µM | > 25 µM |
| NC(=O)c1cc([N+](=O)[O-])c(Cl)c([N+](=O)[O-])c1 | 1.91 µM | 3.36 µM | 13.7 µM | 27.8 µM | 5.59 µM | 18 µM | 3.21 µM | 8.55 µM | 5.99 µM | 19.2 µM | 11.9 µM | 29.4 | 1.97 µM | 3.51 µM | 1.98 µM | 3.92 µM | 3.67 µM | 13.9 µM | 1.96 µM | 3.56 µM |
| O=C1/C(=C/c2ccc([N+](=O)[O-])o2)Oc2ccc(Br)cc21 | 2.11 µM | 3.88 µM | 2.24 µM | 4.43 µM | 2.67 µM | 8.17 µM | 6.7 µM | 25.7 µM | 1.9 µM | 4.03 µM | 3.91 µM | 26.9 | 1.99 µM | 3.56 µM | 2.62 µM | 8.36 µM | 10.9 µM | 42 µM | 2.47 µM | 5.29 µM |
| COc1ccc(C/C(C)=C(\c2ccc(OCCN3CCOCC3)cc2)c2ccc(OC(=O)Cc3ccccc3)cc2)cc1 | 0.778 µM | 2.03 µM | 0.657 µM | 1.25 µM | 0.485 µM | 0.93 µM | 0.553 µM | 1.26 µM | 0.632 µM | 1.34 µM | 0.658 µM | 1.67 | 0.766 µM | 1.66 µM | 0.566 µM | 1.5 µM | 0.961 µM | 12.5 µM | 0.51 µM | 0.994 µM |
| Cc1ccc2c(c1C)-c1c(ccc(C)c1C)C(=O)C2=O |  | 9.11 µM |  | 3.1 µM |  | 1.29 µM |  | 0.702 µM |  | 0.619 µM |  | 5.76 |  | 1.1 µM |  | 11 µM |  | 0.384 µM |  | 1.8 µM |
| O=C1Nc2ccccc2C1Cc1ccc([N+](=O)[O-])cc1 (stereo not drawn) |  | > 100 µM |  | > 100 µM |  | > 100 µM |  | > 100 µM |  | > 100 µM |  | > 100 |  | > 100 µM |  | > 100 µM |  | > 100 µM |  | > 100 µM |
